Experiments:
Type in all cases: cell-based
[1] = system: HCT116 colon cancer cells; assay: hexoseaminidase cell proliferation assay, HCT116
From the text: (§1) Using hexoseaminidase assay, we determined the effect of the compounds on cell proliferation. […]
(§2) Using hexoseaminidase assay, we determined the effect of the compounds on cell proliferation. […] […] […] Overall, the analogs can be used as chemotherapeutic agents against colon and pancreatic cancer.

HCT116 cells = assay: cell cycle analysis, HCT116; details: HCT116, Table 3
[2] = system: MiaPaCa-2 pancreatic cancer cells; assay: hexoseaminidase cell proliferation assay, MiaPaCa-2
Procedure: (§3) Using hexoseaminidase assay, we determined the effect of the compounds on cell proliferation. […] The IC50 value at 48 hours is below 10 μM in all the cancer cell lines.
(§4) Using hexoseaminidase assay, we determined the effect of the compounds on cell proliferation. […] The MRL16 IC50 value at 48 hours is below 0.3 μM in Colon cancer cell lines. […] Overall, the analogs can be used as chemotherapeutic agents against colon and pancreatic cancer.

SW480 cells = assay: cell cycle analysis, SW480; details: SW480, Table 3
Procedure: The analogs were tested to determine the ability induce death of colon cancer cells.

SW480 colon cancer cells = assay: hexoseaminidase cell proliferation assay, SW480
From the text: as §1, §2

[3] = system: PanC-1 pancreatic cancer cells; assay: hexoseaminidase cell proliferation assay, PanC-1
Procedure: as §3, §4

[4] = system: colon, pancreatic and bladder cancer cells; assay: hexoseaminidase cell proliferation assay, summaries over cell lines; details: dose and time dependent
Procedure: Water solubility studies were performed with the CD/analog complexes. […] The observed IC50 value of THBCD at 48 h is below 10 μM in all the colon, pancreatic and bladder cancer cells.
as §3, §4

[5] = Homo sapiens, HCT-116, HCT116, 24 h
[6] = Homo sapiens, HCT-116, HCT116, 48 h
[7] = Homo sapiens, HCT-116, HCT116, 72 h
[8] = Homo sapiens, MIA PaCa-2, MiaPaCa-2, 24 h
[9] = Homo sapiens, MIA PaCa-2, MiaPaCa-2, 48 h
[10] = Homo sapiens, MIA PaCa-2, MiaPaCa-2, 72 h

OC[C@H]1O[C@@H]2O[C@H]3[C@H](O)[C@@H](O)[C@@H](O[C@H]4[C@H](O)[C@@H](O)[C@@H](O[C@H]5[C@H](O)[C@@H](O)[C@@H](O[C@H]6[C@H](O)[C@@H](O)[C@@H](O[C@H]7[C@H](O)[C@@H](O)[C@@H](O[C@H]8[C@H](O)[C@@H](O)[C@@H](O[C@H]1[C@H](O)[C@H]2O)O[C@@H]8CO)O[C@@H]7CO)O[C@@H]6CO)O[C@@H]5CO)O[C@@H]4CO)O[C@@H]3CO [CD, β-cyclodextrin]
IC50 [1, 5]: > 50 µM
IC50 [1, 6]: > 50 µM
IC50 [1, 7]: > 50 µM
G0/G1 (%) (HCT116 cells): 43.9%
G2M (%) (HCT116 cells): 10.9%
S (%) (HCT116 cells): 12.3%
SubG0 Dead Cells (%) (HCT116 cells): 31.0%
IC50 [2, 8]: > 50 µM
IC50 [2, 9]: > 50 µM
IC50 [2, 10]: > 50 µM
G0/G1 (%) (SW480 cells): 61.1%
G2M (%) (SW480 cells): 19.8%
S (%) (SW480 cells): 14.9%
SubG0 Dead Cells (%) (SW480 cells): 3.6%
IC50 (SW480 colon cancer cells; Homo sapiens, SW480, 24 h): > 50 µM
IC50 (SW480 colon cancer cells; Homo sapiens, SW480, 48 h): > 50 µM
IC50 (SW480 colon cancer cells; Homo sapiens, SW480, 72 h): > 50 µM
IC50 ([3]; Homo sapiens, PANC-1, 24 h): > 50 µM
IC50 ([3]; Homo sapiens, PANC-1, 48 h): > 50 µM
IC50 ([3]; Homo sapiens, PANC-1, 72 h): > 50 µM

O=C(N/N=C/c1coc2ccccc2c1=O)c1cc2ccccc2cc1O [CMR]
IC50 ([1]; HCT116, 24 h): > 50 µM
IC50 ([1]; HCT116, 48 h): > 50 µM
IC50 ([1]; HCT116, 72 h): > 50 µM
IC50 ([2]; MiaPaCa-2, 24 h): > 50 µM
IC50 ([2]; MiaPaCa-2, 48 h): > 50 µM
IC50 ([2]; MiaPaCa-2, 72 h): > 50 µM
IC50 (SW480 colon cancer cells; SW480, 24 h): > 50 µM
IC50 (SW480 colon cancer cells; SW480, 48 h): > 50 µM
IC50 (SW480 colon cancer cells; SW480, 72 h): > 50 µM
IC50 ([3]; PanC-1, 24 h): > 50 µM
IC50 ([3]; PanC-1, 48 h): > 50 µM
IC50 ([3]; PanC-1, 72 h): > 50 µM

C/C(=N\NC(=O)c1cc2ccccc2cc1O)c1cc2ccccc2oc1=O [COU]
IC50 [1, 5]: > 50 µM
IC50 [1, 6]: > 50 µM
IC50 [1, 7]: > 50 µM
IC50 [2, 8]: > 50 µM
IC50 [2, 9]: > 50 µM
IC50 [2, 10]: > 50 µM
IC50 (SW480 colon cancer cells; Homo sapiens, SW480, 24 h): > 50 µM
IC50 (SW480 colon cancer cells; Homo sapiens, SW480, 48 h): > 50 µM
IC50 (SW480 colon cancer cells; Homo sapiens, SW480, 72 h): > 50 µM
IC50 ([3]; Homo sapiens, PANC-1, 24 h): > 50 µM
IC50 ([3]; Homo sapiens, PANC-1, 48 h): > 50 µM
IC50 ([3]; Homo sapiens, PANC-1, 72 h): > 50 µM

CC(=O)c1ccc2ccccc2c1O [MRL15]
IC50 [1, 5]: > 10 µM
IC50 [1, 6]: > 10 µM
IC50 [1, 7]: > 10 µM
IC50 [2, 8]: > 10 µM
IC50 [2, 9]: > 10 µM
IC50 [2, 10]: > 10 µM
IC50 (SW480 colon cancer cells; Homo sapiens, SW480, 24 h): > 10 µM
IC50 (SW480 colon cancer cells; Homo sapiens, SW480, 48 h): > 10 µM
IC50 (SW480 colon cancer cells; Homo sapiens, SW480, 72 h): > 10 µM
IC50 ([3]; Homo sapiens, PANC-1, 24 h): > 10 µM
IC50 ([3]; Homo sapiens, PANC-1, 48 h): > 10 µM
IC50 ([3]; Homo sapiens, PANC-1, 72 h): > 10 µM

C/C(=N\NC(=O)c1ccccc1O)c1ccc2ccccc2c1O [MRL18]
IC50 [1, 5]: > 10 µM
IC50 [1, 6]: 3 µM
IC50 [1, 7]: 1 µM
IC50 [2, 8]: > 10 µM
IC50 [2, 9]: > 10 µM
IC50 [2, 10]: 10 µM
IC50 (SW480 colon cancer cells; Homo sapiens, SW480, 24 h): > 10 µM
IC50 (SW480 colon cancer cells; Homo sapiens, SW480, 48 h): 5 µM
IC50 (SW480 colon cancer cells; Homo sapiens, SW480, 72 h): 3 µM
IC50 ([3]; Homo sapiens, PANC-1, 24 h): > 10 µM
IC50 ([3]; Homo sapiens, PANC-1, 48 h): 4 µM
IC50 ([3]; Homo sapiens, PANC-1, 72 h): 2 µM
inhibition of cell proliferation (in words) [4]: potent inhibitor

C/C(=N\NC(=O)c1ccccc1)c1ccc2ccccc2c1O [MRL19]
IC50 [1, 5]: > 10 µM
IC50 [1, 6]: 5 µM
IC50 [1, 7]: 2.3 µM
IC50 [2, 8]: > 10 µM
IC50 [2, 9]: > 10 µM
IC50 [2, 10]: > 10 µM
IC50 (SW480 colon cancer cells; Homo sapiens, SW480, 24 h): > 10 µM
IC50 (SW480 colon cancer cells; Homo sapiens, SW480, 48 h): > 10 µM
IC50 (SW480 colon cancer cells; Homo sapiens, SW480, 72 h): 5 µM
IC50 ([3]; Homo sapiens, PANC-1, 24 h): > 10 µM
IC50 ([3]; Homo sapiens, PANC-1, 48 h): 10 µM
IC50 ([3]; Homo sapiens, PANC-1, 72 h): 4 µM
inhibition of cell proliferation (in words) [4]: potent inhibitor

C/C(=N\NC(=O)c1cc2ccccc2cc1O)c1ccc2ccccc2c1O [MRL20]
IC50 ([1]; HCT116, 24 h): > 2 µM
IC50 ([1]; HCT116, 48 h): 0.5 µM
IC50 ([1]; HCT116, 72 h): 0.4 µM
IC50 ([2]; MiaPaCa-2, 24 h): > 10 µM
IC50 ([2]; MiaPaCa-2, 48 h): 9 µM
IC50 ([2]; MiaPaCa-2, 72 h): 8 µM
IC50 (SW480 colon cancer cells; SW480, 24 h): > 2 µM
IC50 (SW480 colon cancer cells; SW480, 48 h): 1.2 µM
IC50 (SW480 colon cancer cells; SW480, 72 h): 1 µM
IC50 ([3]; PanC-1, 24 h): > 10 µM
IC50 ([3]; PanC-1, 48 h): 5 µM
IC50 ([3]; PanC-1, 72 h): 1 µM
inhibition of cell proliferation (in words) [4]: potent inhibitor

C/C(=N\NC(=O)c1ccco1)c1ccc2ccccc2c1O [MRL21]
IC50 ([1]; HCT116, 24 h): 10 µM
IC50 ([1]; HCT116, 48 h): 3.8 µM
IC50 ([1]; HCT116, 72 h): 3 µM
IC50 ([2]; MiaPaCa-2, 24 h): > 10 µM
IC50 ([2]; MiaPaCa-2, 48 h): 5 µM
IC50 ([2]; MiaPaCa-2, 72 h): 5 µM
IC50 (SW480 colon cancer cells; SW480, 24 h): > 10 µM
IC50 (SW480 colon cancer cells; SW480, 48 h): 5 µM
IC50 (SW480 colon cancer cells; SW480, 72 h): 3 µM
IC50 ([3]; PanC-1, 24 h): > 10 µM
IC50 ([3]; PanC-1, 48 h): 5 µM
IC50 ([3]; PanC-1, 72 h): 3 µM
inhibition of cell proliferation (in words) [4]: potent inhibitor

C/C(=N\NC(=O)Cc1cc2ccccc2[nH]1)c1ccc2ccccc2c1O [MRL22]
IC50 [1, 5]: > 10 µM
IC50 [1, 6]: > 10 µM
IC50 [1, 7]: > 10 µM
IC50 [2, 8]: > 10 µM
IC50 [2, 9]: > 10 µM
IC50 [2, 10]: > 10 µM
IC50 (SW480 colon cancer cells; Homo sapiens, SW480, 24 h): > 10 µM
IC50 (SW480 colon cancer cells; Homo sapiens, SW480, 48 h): > 10 µM
IC50 (SW480 colon cancer cells; Homo sapiens, SW480, 72 h): > 10 µM
IC50 ([3]; Homo sapiens, PANC-1, 24 h): > 10 µM
IC50 ([3]; Homo sapiens, PANC-1, 48 h): > 10 µM
IC50 ([3]; Homo sapiens, PANC-1, 72 h): > 10 µM

— US20200102264A1, “MARMELIN ANALOGS AND METHODS OF USE IN CANCER TREATMENT” (THE UNIVERSITY OF KANSAS, priority 2014, published 2020)
